# Starred links: 1 amine or outer side, 2 acyl side, 3 side chain; linkers in the order of their positions; H or OH if unused. Positions of bridges follow the written chain, without caps; N, C: chain ends. Non-standard residues stand in square brackets, D forms with d. Residues, ends and D or L forms follow the SMILES beside them. Phe(3-CF3) = N[C@@H](Cc1cccc(C(F)(F)F)c1)C(=O)O; X1 = C=CCOc1ccccc1C[C@H](N[*:1])C(=O)[*:2]; Phe(3-Cl) = N[C@@H](Cc1cccc(Cl)c1)C(=O)O; Phe(2-Me) = Cc1ccccc1C[C@H](N)C(=O)O; Ahp(2) = CCCCC[C@H](N)C(=O)O; NMeNle = CCCC[C@H](NC)C(=O)O; Tle = CC(C)(C)[C@H](N)C(=O)O; NHexGly = CCCCCCNCC(=O)O
# Molecular target: T1, mouse VISTA (mVISTA) (Mus musculus, UniProt Q9D659)
# T1 construct: expressed in transfected cells; host or cells: Human embryonic kidney 293T cells
# T1 sequence (Q9D659 33-308): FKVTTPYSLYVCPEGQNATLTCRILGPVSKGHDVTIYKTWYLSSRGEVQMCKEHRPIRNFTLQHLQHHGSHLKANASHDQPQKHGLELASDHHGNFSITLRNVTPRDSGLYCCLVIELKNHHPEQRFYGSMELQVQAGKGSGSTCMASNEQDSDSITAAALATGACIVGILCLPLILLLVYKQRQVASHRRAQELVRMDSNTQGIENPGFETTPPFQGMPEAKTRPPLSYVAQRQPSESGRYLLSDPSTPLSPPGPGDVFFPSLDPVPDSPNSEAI
# Assay: Cell-Based Binding High-Content Assay For mVISTA (HC CBA mVISTA)
# Details: read-out: HC CBA mVISTA IC50
# Summary of the method: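 This high-content binding assay uses HEK293T cells expressing murine VISTA, measuring displacement of 2 nM biotinylated peptide by fluorescent streptavidin imaging. IC50 values come from four-parameter logistic fitting.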
row,SMILES,IC50
1,CCCCCCN1CC(=O)N[C@@H](Cc2ccc(O)cc2)C(=O)N[C@@H](CC(C)C)C(=O)N[C@@H](CC(N)=O)C(=O)N[C@@H](CCCNC(=N)N)C(=O)N(C)[C@@H](CCCC)C(=O)N[C@@H](CCCCC)C(=O)N2CCC[C@H]2C(=O)N[C@@H](C(C)C)C(=O)N[C@@H](CO)C(=O)N[C@H](C(=O)NCC(N)=O)CSCC(=O)N[C@@H](Cc2ccccc2C)C(=O)N[C@@H](Cc2ccc(O)cc2)C(=O)N[C@@H](CC(=O)O)C1=O [compound 1204] ({CH2CO}-[Phe(2-Me)]YD[NHexGly]YLNR[NMeNle][Ahp(2)]PVSCG-NH2; thioether N-14),18.4 nM
2,CCCCCCN1CC(=O)N[C@@H](Cc2ccc(O)cc2)C(=O)N[C@@H](CC(C)C)C(=O)N[C@@H](CC(N)=O)C(=O)N[C@@H](CCCNC(=N)N)C(=O)N(C)[C@@H](CCCC)C(=O)N[C@@H](CCCCC)C(=O)N2CCC[C@H]2C(=O)N[C@@H](C(C)(C)C)C(=O)N[C@@H](CO)C(=O)N[C@H](C(=O)NCC(N)=O)CSCC(=O)N[C@@H](Cc2ccccc2C)C(=O)N[C@@H](Cc2ccc(O)cc2)C(=O)N[C@@H](CC(=O)O)C1=O [compound 1205] ({CH2CO}-[Phe(2-Me)]YD[NHexGly]YLNR[NMeNle][Ahp(2)]P[Tle]SCG-NH2; thioether N-14),16.4 nM
3,C=CCOc1ccccc1C[C@@H]1NC(=O)CSC[C@@H](C(=O)NCC(N)=O)NC(=O)[C@H](CO)NC(=O)[C@H](C(C)(C)C)NC(=O)[C@@H]2CCCN2C(=O)[C@H](CCCCC)NC(=O)[C@H](CCCC)N(C)C(=O)[C@H](CCCNC(=N)N)NC(=O)[C@H](CC(N)=O)NC(=O)[C@H](CC(C)C)NC(=O)[C@H](Cc2ccc(O)cc2)NC(=O)CN(CCCCCC)C(=O)[C@H](CC(=O)O)NC(=O)[C@H](Cc2ccc(O)cc2)NC1=O [compound 1206] ({CH2CO}-[X1]YD[NHexGly]YLNR[NMeNle][Ahp(2)]P[Tle]SCG-NH2; thioether N-14),28.2 nM
4,CCCCCCN1CC(=O)N[C@@H](Cc2ccc(O)cc2)C(=O)N[C@@H](CC(C)C)C(=O)N[C@@H](CC(N)=O)C(=O)N[C@@H](CCCNC(=N)N)C(=O)N(C)[C@@H](CCCC)C(=O)N[C@@H](CCCCC)C(=O)N2CCC[C@H]2C(=O)N[C@@H](C(C)(C)C)C(=O)N[C@@H](CO)C(=O)N[C@H](C(=O)NCC(N)=O)CSCC(=O)N[C@@H](Cc2cccc(C(F)(F)F)c2)C(=O)N[C@@H](Cc2ccc(O)cc2)C(=O)N[C@@H](CC(=O)O)C1=O [compound 1207] ({CH2CO}-[Phe(3-CF3)]YD[NHexGly]YLNR[NMeNle][Ahp(2)]P[Tle]SCG-NH2; thioether N-14),24.5 nM
5,CCCCCCN1CC(=O)N[C@@H](Cc2ccc(O)cc2)C(=O)N[C@@H](CC(C)C)C(=O)N[C@@H](CC(N)=O)C(=O)N[C@@H](CCCNC(=N)N)C(=O)N(C)[C@@H](CCCC)C(=O)N[C@@H](CCCCC)C(=O)N2CCC[C@H]2C(=O)N[C@@H](C(C)C)C(=O)N[C@@H](CO)C(=O)N[C@H](C(=O)NCC(N)=O)CSCC(=O)N[C@@H](Cc2cccc(Cl)c2)C(=O)N[C@@H](Cc2ccc(O)cc2)C(=O)N[C@@H](CC(=O)O)C1=O [compound 1208] ({CH2CO}-[Phe(3-Cl)]YD[NHexGly]YLNR[NMeNle][Ahp(2)]PVSCG-NH2; thioether N-14),27.7 nM
6,CCCCCCN1CC(=O)N[C@@H](Cc2ccc(O)cc2)C(=O)N[C@@H](CC(C)C)C(=O)N[C@@H](CC(N)=O)C(=O)N[C@@H](CCCNC(=N)N)C(=O)N(C)[C@@H](CCCC)C(=O)N[C@@H](CCCCC)C(=O)N2CCC[C@H]2C(=O)N[C@@H](C(C)(C)C)C(=O)N[C@@H](CO)C(=O)N[C@H](C(=O)NCC(N)=O)CSCC(=O)N[C@@H](Cc2cccc(Cl)c2)C(=O)N[C@@H](Cc2ccc(O)cc2)C(=O)N[C@@H](CC(=O)O)C1=O [compound 1209] ({CH2CO}-[Phe(3-Cl)]YD[NHexGly]YLNR[NMeNle][Ahp(2)]P[Tle]SCG-NH2; thioether N-14),33.2 nM

# Reference: patent US20240218022A1, “ANTI-VISTA MACROCYCLIC PEPTIDES AND COMPOSITIONS” (BRISTOL-MYERS SQUIBB COMPANY, priority 2022, published 2024)
